Measured values reported in patent US20080234345A1, “METHOD FOR REDUCING OR ALLEVIATING INFLAMMATION IN THE DIGESTIVE TRACT” (Gene Logic Inc., priority 2006, published 2008).

Assays:
[1] = test system: activator protein-1 (AP-1); experiment: Basal in vivo reporter luciferase expression in AP-1::Luc mice; conditions: AP-1::Luc mice (data not shown)
[2] = test system: NF-κB dependent transcription; experiment: In vivo LPS induced NF-κB dependent transcription in NF-κB::Luc mice, abdominal imaging
Excerpt: More particularly, transgenic NF-κB::Luc mice were generated using three NF-κB response elements from the Igκ light chain promoter fused to a firefly luciferase gene as described by Carlsen et al. (2002) J. Immunol. 168:1441-1446. Pronuclear microinjection of purified construct DNA was used to generate transgenic founders in the C57BL/6 XCBA/J background. Founders were subsequently back crossed to the C57BL/6 albino background. All experimental protocols were approved by the Institutional Animal Care and Use Committee and conform to the ILAR guide for the care and used of laboratory animals. For in vivo imaging, NF-κB::Luc mice were injected intraperitoneally with luciferin (150 mg/kg) 10 minutes before imaging, anesthetized (using 1-3% isoflurane) and placed into a light-tight camera box. […] Signal data were also quantitated and archived using the Living Image® software. Photons of light were quantitated using an oval region of interest (ROI) of varying sizes depending on the procedure, as described further below.
GL1001 was further tested for in vivo anti-inflammatory activity by examining its effects on bacterial LPS induced NF-κB dependent transcription, in NF-κB::Luc mice. […] Mice were subjected to quantitative abdominal imaging at 2, 4 and 6 h following LPS administration, as described above. […] Luciferase signal was quantitated from several regions of interest. […]

[3] = test system: NF-κB dependent transcription; experiment: LPS induced NF-κB dependent transcription in extracted organs of NF-κB::Luc mice (luciferase lysate assay); format: in vivo; conditions: GL1001 30 mg/kg, LPS 0.5 mg/kg, vs LPS alone
Excerpt: For luciferase assays, organs were extracted and snap frozen in liquid nitrogen. AII tissue samples were placed in lysis buffer with inhibitors (Passive Lysis Buffer (Promega) and Complete Mini Protease Inhibitor Cocktail (Roche, Indianapolis, Ind.)), and were homogenized using a tissue homogenizer (Handishear, Hand-held homogenizer, VirTis, Gardiner, N.Y.). Tissue homogenates were centrifuged and clarified lysates were used for luminometer assays and western blots. For the luminometer assays, Luciferase Assay Substrate (Luciferase Assay System, Promega) was prepared as indicated by the manufacturer and placed in disposable cuvettes. […] Background luminescence readings were obtained and the background readings were subtracted from the luminescent data. Protein concentrations were determined using the BCA Protein Assay Kit (Pierce, Rockford, Ill.) following the manufacturer's protocols and analyzed using a VERSAmax tunable microplate reader and associated Softmax Pro version 3.1.2 software (Molecular Devices, Sunnyvale Calif.). The luminescence for each of the protein lysates was calculated as arbitrary units of light per microgram of protein. […]
GL1001 was further tested for in vivo anti-inflammatory activity by examining its effects on bacterial LPS induced NF-κB dependent transcription, in NF-κB::Luc mice. […] Luciferase signal was quantitated from several regions of interest. […]

[4] = test system: DSS-induced NF-κB signaling; experiment: Subsequent DSS study in NF-κB::Luc mice, oral gavage; format: in vivo; conditions: 300 mg/kg/day, twice daily by oral gavage; 2.5% DSS
Excerpt: In a subsequent study in NF-κB::Luc mice, 2.5% DSS treatment tended to increase NF-κB signaling, as measured by luciferase expression, in distal colon and mesenteric lymph tissues, although these increases were generally not statistically significant. […] Reasons for lack of effect of GL1001 in this study are not fully understood at present.

[5] = test system: DSS-induced colitis in Balb/c mice; experiment: DSS-induced colitis in Balb/c mice (Example 7); format: in vivo; conditions: s.c. b.i.d., GL1001 300 mg/kg
Experimental: A study was designed with six groups of Balb/c mice: naïve control, DSS followed by vehicle, DSS followed by GL1001 30 mg/kg/day, DSS followed by GL1001 100 mg/kg/day, DSS followed by GL1001 300 mg/kg/day, and DSS followed by sulfasalazine 150 mg/kg/day. Administration of DSS was via drinking water, from day 1 to day 6 of the study. […] Administration of vehicle, GL1001 and sulfasalazine was subcutaneous, twice daily, from day 6 until termination of the study (day 16).
Body weight of each animal was measured at days 1, 3 and 5 (pre-initiation of GL1001 or sulfasalazine treatment) and at days 7, 9, 11 and 13 (post-initiation of GL1001 or sulfasalazine treatment). On these same days, disease activity measurements were recorded, including: • (a) rectal prolapse (0=no prolapse, 1=partial prolapse, 2=moderate prolapse, 3=full prolapse); • (b) stool consistency (0=solid pellet, 1=semi-solid, 2=soft stool, 3=diarrhea); and • (c) fecal occult blood (0=no blood present, 1=occult blood, 2=gross blood).
At termination of the study, colon length was determined and histological analysis was conducted as in Example 6.

SMILES: CC(C)C[C@H](N[C@@H](Cc1cncn1Cc1cc(Cl)cc(Cl)c1)C(=O)O)C(=O)O [GL1001, (S,S)-2-[1-carboxy-2-[3-(3,5-dichlorobenzyl)-3H-imidazol-4-yl]-ethylamino]-4-methylpentanoic acid]
- basal in vivo levels of reporter luciferase expression [1]: no significant effect
- LPS induced NF-κB signaling response, abdominal region ([2]; GL1001 30, 100, 300 mg/kg s.c. 1 hour before LPS i.v. (FIG. 4)): significantly reduced
- LPS induced NF-κB signaling ([2]; at 30 and 100 mg/kg, dose range 3-100 mg/kg (FIG. 5)): significantly reduced
- LPS induced NF-κB signaling in pancreas and uterus, or any other organ analyzed [3]: no statistically significant decrease
- reduction of LPS induced NF-κB-dependent transcription in stomachs [3]: about 37 fold
- DSS-induced NF-κB signaling (luciferase expression) [4]: did not lower
- fecal occult blood ([5]; day 7, sulfasalazine 150 mg/kg): reduces
- stool consistency ([5]; day 7, sulfasalazine 150 mg/kg): reduces
- percentage weight loss ([5]; day 9, sulfasalazine 150 mg/kg): reduces
- rectal prolapse ([5]; day 9, sulfasalazine 150 mg/kg): reduces
- distal colon erosion score [5]: reduces
- distal colon crypt score ([5]; sulfasalazine 150 mg/kg): reduces
- distal colon inflammation score ([5]; sulfasalazine 150 mg/kg): reduces
- distal colon total histopathology score ([5]; sulfasalazine 150 mg/kg): reduces
- reduction in colon length ([5]; sulfasalazine 150 mg/kg): inhibits reduction
